Data taken from patent US7960339B2, “Antimicrobial peptides” (Österreichische Akademie der Wissenschaften, priority 2006, dated 2011).
Peptide text beside a SMILES is read from it. * marks the point of attachment. Dicyclohexylacetyl = O=C(C(C1CCCCC1)C1CCCCC1)*; Butanoyl(2,2-Me2) = CCC(C)(C)C(=O)*; Octanoyl(6-Me) = CCC(C)CCCCC(=O)*; Octanoyl = CCCCCCCC(=O)*; X1 = CCCCC(CC)C(=O)*

System: C. neoformans ATCC 32045
Type: cell-based
Settings: ATCC 32045, 72 h
Experimental: C. neoformans ATCC 32045 cultures were maintained on yeast medium (YM; Difco Laboratories, Detroit, Mich.) agar plates at 4° C. Prior to the assay, the cultures were grown on agar plates and incubated for 72 hrs at 26° C. Two colonies of these newly grown fungal cultures were then inoculated in 5 ml of 2×YM broth, vortexed, and diluted 10-fold in 2×YM broth, for an approximate final assay concentration of 1×105 to 5×10^5 CFU/ml. In 96-well tissue culture plates, fungal suspensions in 2×YM broth were added to the peptides dispensed at concentrations ranging from 1 mg/ml to 1 μg/ml derived from serial twofold dilutions in sterile water. The plates were then incubated for 72 hrs at 26° C. The relative percent growth of the fungi found for each test sample was determined by the optical density at 620 nm (OD620) by using a Titertek Multiskan Plus apparatus. […] The IC50 were calculated by using a sigmoidal curve-fitting software program (Graphpad Prism; ISI Software, San Diego, Calif.).

SMILES	average IC50	average MIC
N=C(N)NCCC[C@H](NC(=O)[C@H](CCCNC(=N)N)NC(=O)[C@H](Cc1c[nH]c2ccccc12)NC(=O)[C@H](CCCNC(=N)N)NC(=O)[C@H](CCCCN)NC(=O)[C@H](CCCNC(=N)N)NC(=O)[C@H](Cc1c[nH]c2ccccc12)NC(=O)[C@H](Cc1ccccc1)NC(=O)[C@@H]1CCCN1)C(N)=O [VS1-31, PFWRKRWRR-NH2] (H-PFWRKRWRR-NH2; N-terminus assumed)	8 µg/mL	32 µg/mL
CC[C@H](C)[C@H](NC(=O)[C@H](CCCNC(=N)N)NC(=O)[C@H](CCCNC(=N)N)NC(=O)[C@H](CCCNC(=N)N)NC(=O)[C@H](Cc1c[nH]c2ccccc12)NC(=O)[C@H](Cc1ccccc1)NC(=O)[C@@H]1CCCN1)C(=O)N[C@@H](CCCNC(=N)N)C(=O)N[C@@H](CCCNC(=N)N)C(N)=O [VS1-32, PFWRRRIRR-NH2] (H-PFWRRRIRR-NH2; N-terminus assumed)	9 µg/mL	32 µg/mL
N=C(N)NCCC[C@H](NC(=O)[C@H](CCCNC(=N)N)NC(=O)[C@H](Cc1c[nH]c2ccccc12)NC(=O)[C@H](CCCNC(=N)N)NC(=O)[C@H](CCCNC(=N)N)NC(=O)[C@H](CCCNC(=N)N)NC(=O)[C@H](Cc1c[nH]c2ccccc12)NC(=O)[C@H](Cc1ccccc1)NC(=O)[C@@H]1CCCN1)C(N)=O [VS1-33, PFWRRRWRR-NH2] (H-PFWRRRWRR-NH2; N-terminus assumed)	9 µg/mL	32 µg/mL
CC[C@H](C)[C@H](NC(=O)[C@H](CCCNC(=N)N)NC(=O)[C@@H](NC(=O)[C@H](CCCNC(=N)N)NC(=O)[C@H](Cc1c[nH]c2ccccc12)NC(=O)[C@@H]1CCCN1)[C@@H](C)CC)C(=O)N[C@@H](CCCNC(=N)N)C(=O)N[C@@H](CCCNC(=N)N)C(N)=O [VS1-34, PWRIRIRR-NH2] (H-PWRIRIRR-NH2; N-terminus assumed)	2 µg/mL	8 µg/mL
CC[C@H](C)[C@H](NC(=O)[C@H](CCCNC(=N)N)NC(=O)[C@H](CCCNC(=N)N)NC(=O)[C@H](Cc1c[nH]c2ccccc12)NC(=O)[C@@H]1CCCN1)C(=O)N[C@@H](CCCNC(=N)N)C(=O)N[C@@H](CCCNC(=N)N)C(N)=O [VS1-35, PWRRIRR-NH2] (H-PWRRIRR-NH2; N-terminus assumed)	12 µg/mL	32 µg/mL
CC[C@H](C)[C@H](NC(=O)[C@H](CCCCN)NC(=O)[C@H](CCCNC(=N)N)NC(=O)[C@H](CCCNC(=N)N)NC(=O)[C@H](Cc1c[nH]c2ccccc12)NC(=O)[C@@H]1CCCN1)C(=O)N[C@@H](CCCNC(=N)N)C(=O)N[C@@H](CCCNC(=N)N)C(N)=O [VS1-36, PWRRKIRR-NH2] (H-PWRRKIRR-NH2; N-terminus assumed)	11 µg/mL	62 µg/mL
CC[C@H](C)[C@H](NC(=O)[C@H](CCCNC(=N)N)NC(=O)[C@@H](NC(=O)[C@H](CCCNC(=N)N)NC(=O)[C@H](CCCNC(=N)N)NC(=O)[C@H](CCCNC(=N)N)NC(=O)[C@H](Cc1c[nH]c2ccccc12)NC(=O)[C@H](Cc1ccccc1)NC(=O)[C@@H]1CCCN1)[C@@H](C)CC)C(=O)N[C@@H](CCCNC(=N)N)C(=O)N[C@@H](CCCNC(=N)N)C(N)=O [VS1-37, PFWRRRIRIRR-NH2] (H-PFWRRRIRIRR-NH2; N-terminus assumed)	9 µg/mL	32 µg/mL
N=C(N)NCCC[C@H](NC(=O)[C@H](CCCNC(=N)N)NC(=O)[C@H](Cc1c[nH]c2ccccc12)NC(=O)[C@H](Cc1ccccc1)NC(=O)[C@H](Cc1c[nH]c2ccccc12)NC(=O)[C@H](CCCNC(=N)N)NC(=O)[C@@H](N)CCCNC(=N)N)C(=O)O [VS1-39, RRWFWRR-OH] (H-RRWFWRR-OH; N-terminus assumed)	6 µg/mL	32 µg/mL
CCCCCCCC(=O)N[C@@H](Cc1ccccc1)C(=O)N[C@@H](Cc1c[nH]c2ccccc12)C(=O)N[C@@H](CCC(N)=O)C(=O)N[C@@H](CCCNC(=N)N)C(=O)N[C@@H](CC(N)=O)C(=O)N[C@H](C(=O)N[C@@H](CCCNC(=N)N)C(=O)N[C@@H](CCCCN)C(=O)N[C@@H](Cc1c[nH]c2ccccc12)C(=O)N[C@@H](CCCNC(=N)N)C(N)=O)[C@@H](C)CC [VS1-40, octanoyl FWQRNIRKWR-NH2] (Octanoyl-FWQRNIRKWR-NH2)	2 µg/mL	8 µg/mL
CCCCC(CC)C(=O)N[C@@H](Cc1ccccc1)C(=O)N[C@@H](Cc1c[nH]c2ccccc12)C(=O)N[C@@H](CCC(N)=O)C(=O)N[C@@H](CCCNC(=N)N)C(=O)N[C@@H](CC(N)=O)C(=O)N[C@H](C(=O)N[C@@H](CCCNC(=N)N)C(=O)N[C@@H](CCCCN)C(=O)N[C@@H](Cc1c[nH]c2ccccc12)C(=O)N[C@@H](CCCNC(=N)N)C(N)=O)[C@@H](C)CC (stereo partly drawn) [VS1-41, 2-ethylhexanoyl FWQRNIRKWR-NH2] (X1-FWQRNIRKWR-NH2)	4 µg/mL	8 µg/mL
CCC(C)CCCCC(=O)N[C@@H](Cc1ccccc1)C(=O)N[C@@H](Cc1c[nH]c2ccccc12)C(=O)N[C@@H](CCC(N)=O)C(=O)N[C@@H](CCCNC(=N)N)C(=O)N[C@@H](CC(N)=O)C(=O)N[C@H](C(=O)N[C@@H](CCCNC(=N)N)C(=O)N[C@@H](CCCCN)C(=O)N[C@@H](Cc1c[nH]c2ccccc12)C(=O)N[C@@H](CCCNC(=N)N)C(N)=O)[C@@H](C)CC (stereo partly drawn) [VS1-43, 6-methyloctanoyl FWQRNIRKWR-NH2] ({Octanoyl(6-Me)}-FWQRNIRKWR-NH2)	6 µg/mL	16 µg/mL
CC[C@H](C)[C@H](NC(=O)[C@H](CC(N)=O)NC(=O)[C@H](CCCNC(=N)N)NC(=O)[C@H](CCC(N)=O)NC(=O)[C@H](Cc1c[nH]c2ccccc12)NC(=O)[C@H](Cc1ccccc1)NC(=O)C(C1CCCCC1)C1CCCCC1)C(=O)N[C@@H](CCCNC(=N)N)C(=O)N[C@@H](CCCCN)C(=O)N[C@@H](Cc1c[nH]c2ccccc12)C(=O)N[C@@H](CCCNC(=N)N)C(N)=O [VS1-44, dicyclohexylacetyl FWQRNIRKWR-NH2] (Dicyclohexylacetyl-FWQRNIRKWR-NH2)	4 µg/mL	16 µg/mL
CCCCCCCC(=O)N[C@@H](CCCNC(=N)N)C(=O)N[C@@H](Cc1c[nH]c2ccccc12)C(=O)N[C@@H](CCCCN)C(=O)N[C@@H](CCCNC(=N)N)C(=O)N[C@H](C(=O)N[C@@H](CC(N)=O)C(=O)N[C@@H](CCCNC(=N)N)C(=O)N[C@@H](CCC(N)=O)C(=O)N[C@@H](Cc1c[nH]c2ccccc12)C(=O)N[C@@H](Cc1ccccc1)C(N)=O)[C@@H](C)CC [VS1-45, octanoyl RWKRINRQWF-NH2] (Octanoyl-RWKRINRQWF-NH2)	2 µg/mL	4 µg/mL
CCCCC(CC)C(=O)N[C@@H](CCCNC(=N)N)C(=O)N[C@@H](Cc1c[nH]c2ccccc12)C(=O)N[C@@H](CCCCN)C(=O)N[C@@H](CCCNC(=N)N)C(=O)N[C@H](C(=O)N[C@@H](CC(N)=O)C(=O)N[C@@H](CCCNC(=N)N)C(=O)N[C@@H](CCC(N)=O)C(=O)N[C@@H](Cc1c[nH]c2ccccc12)C(=O)N[C@@H](Cc1ccccc1)C(N)=O)[C@@H](C)CC (stereo partly drawn) [VS1-46, 2-ethylhexanoyl RWKRINRQWF-NH2] (X1-RWKRINRQWF-NH2)	4 µg/mL	8 µg/mL
CC[C@H](C)[C@H](NC(=O)[C@H](CCCNC(=N)N)NC(=O)[C@H](CCCCN)NC(=O)[C@H](Cc1c[nH]c2ccccc12)NC(=O)[C@H](CCCNC(=N)N)NC(=O)C(C)(C)CC)C(=O)N[C@@H](CC(N)=O)C(=O)N[C@@H](CCCNC(=N)N)C(=O)N[C@@H](CCC(N)=O)C(=O)N[C@@H](Cc1c[nH]c2ccccc12)C(=O)N[C@@H](Cc1ccccc1)C(N)=O [VS1-47, 2,2-dimethylbutanoyl RWKRINRQWF-NH2] ({Butanoyl(2,2-Me2)}-RWKRINRQWF-NH2)	8 µg/mL	16 µg/mL
CCC(C)CCCCC(=O)N[C@@H](CCCNC(=N)N)C(=O)N[C@@H](Cc1c[nH]c2ccccc12)C(=O)N[C@@H](CCCCN)C(=O)N[C@@H](CCCNC(=N)N)C(=O)N[C@H](C(=O)N[C@@H](CC(N)=O)C(=O)N[C@@H](CCCNC(=N)N)C(=O)N[C@@H](CCC(N)=O)C(=O)N[C@@H](Cc1c[nH]c2ccccc12)C(=O)N[C@@H](Cc1ccccc1)C(N)=O)[C@@H](C)CC (stereo partly drawn) [VS1-48, 6-methyloctanoyl RWKRINRQWF-NH2] ({Octanoyl(6-Me)}-RWKRINRQWF-NH2)	2 µg/mL	8 µg/mL
CC[C@H](C)[C@H](NC(=O)[C@H](CCCNC(=N)N)NC(=O)[C@H](CCCCN)NC(=O)[C@H](Cc1c[nH]c2ccccc12)NC(=O)[C@H](CCCNC(=N)N)NC(=O)C(C1CCCCC1)C1CCCCC1)C(=O)N[C@@H](CC(N)=O)C(=O)N[C@@H](CCCNC(=N)N)C(=O)N[C@@H](CCC(N)=O)C(=O)N[C@@H](Cc1c[nH]c2ccccc12)C(=O)N[C@@H](Cc1ccccc1)C(N)=O [VS1-49, dicyclohexylacetyl RWKRINRQWF-NH2] (Dicyclohexylacetyl-RWKRINRQWF-NH2)	2 µg/mL	4 µg/mL
CCCCCCCC(=O)N1CCC[C@H]1C(=O)N[C@@H](Cc1ccccc1)C(=O)N[C@@H](Cc1c[nH]c2ccccc12)C(=O)N[C@@H](CCCNC(=N)N)C(=O)N[C@H](C(=O)N[C@@H](CCCNC(=N)N)C(=O)N[C@H](C(=O)N[C@@H](CCCNC(=N)N)C(=O)N[C@@H](CCCNC(=N)N)C(N)=O)[C@@H](C)CC)[C@@H](C)CC [VS1-50, octanoyl PFWRIRIRR-NH2] (Octanoyl-PFWRIRIRR-NH2)	6 µg/mL	16 µg/mL
